{"source": "paper PMC8556396", "about": "“Statin-mediated disruption of Rho GTPase prenylation and activity inhibits respiratory syncytial virus infection” (Communications Biology, 2021)", "key": {"RSV-GFP": {"test_system": "RSV-GFP", "experiment": "microbe, parasite or virus in culture", "type": "cell-based, Respiratory syncytial virus", "outline": "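Cells infected with RSV-GFP (MOI 0.5) for 90 min in serum-free medium; library compounds added within 1 h of infection at 10 µM final (0.1% DMSO). At 48 h p.i., infection rate was imaged as fraction of nuclei within GFP area, with mean nuclear intensity and size serving as the viability measure.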"}, "[1]": {"test_system": "prenylated proteins (small GTPases)", "experiment": "Measurement of protein prenylation by click chemistry", "type": "cell-based", "conditions": "for GAPDH Normalized Intensity, Farnesylation / GAPDH Normalized Intensity, Geranylgeranylation / Raw Integrated Intensity, Farnesylation / Raw Integrated Intensity, Geranylgeranylation: + statin (atorvastatin 3.5 µM)", "description": "HEp-2 cells were cultured in the presence of farnesyl alcohol azide (FAA) (SC-294586, Santa Cruz Biotechnology) or geranylgeranyl alcohol azide (GGAA) (C10249, Thermo Fisher Scientific) at a final concentration of 25 µM diluted in 10 mM aqueous NH4OH. Cells were infected with RSV A2 (MOI 0.5) and treated with drugs 2 h post-viral exposure. Cell lysis was performed on ice in RIPA buffer 48 h p.i., and prenylated proteins were reacted with biotin-PEG4-alkyne using the Click-iT Protein Reaction Buffer Kit (C10276, Thermo Fisher Scientific) as per the manufacturer’s protocol. Prenylated proteins in the processed samples were then visualized by western blot using a streptavidin-HRP conjugate (RPN1231, Cytiva) and Clarity ECL Substrate (1705061, Bio-Rad). Relative protein levels were quantified by densitometry in ImageJ (v1.52b)."}, "HEp-2 cells": {"test_system": "HEp-2 cells", "experiment": "In vitro cytotoxicity assay (MTT)", "type": "cell-based"}}, "note": "Values joined by “and” are separate entries in the source; they are usually repeats but may differ in a detail not shown here. Equal entries are not always repeated. Structures can show the parent of a compound that is named as a salt.", "data": [{"smiles": "CC(C)c1c(C(=O)Nc2ccccc2)c(-c2ccccc2)c(-c2ccc(F)cc2)n1CC[C@@H](O)C[C@@H](O)CC(=O)O", "note": "[Atorvastatin, Atorvastatin calcium salt trihydrate]", "values": [{"measurement": "RSV inhibition in the screen", "setting": "RSV-GFP; HEp-2, RSV-GFP", "result": "inhibit RSV at low micromolar concentrations"}, {"measurement": "inhibition at 10 µM", "setting": "RSV-GFP; human respiratory syncytial virus, HEp-2, read-out: RSV-GFP inhibition (%)", "result": 56.4, "unit": "%"}, {"measurement": "GAPDH Normalized Intensity, Farnesylation", "setting": "[1]; + RSV", "result": "1.959 and 2.027"}, {"measurement": "GAPDH Normalized Intensity, Geranylgeranylation", "setting": "[1]; + RSV", "result": "0.9753 and 1.167"}, {"measurement": "Raw Integrated Intensity, Farnesylation", "setting": "[1]; + RSV", "result": "2027541 and 2238487"}, {"measurement": "Raw Integrated Intensity, Geranylgeranylation", "setting": "[1]; + RSV", "result": "1062035 and 1238827"}, {"measurement": "GAPDH Normalized Intensity, Farnesylation", "setting": "[1]; - RSV", "result": "1.992 and 1.8833"}, {"measurement": "GAPDH Normalized Intensity, Geranylgeranylation", "setting": "[1]; - RSV", "result": "0.8805 and 0.8849"}, {"measurement": "Raw Integrated Intensity, Geranylgeranylation", "setting": "[1]; - RSV", "result": "899910 and 921628"}, {"measurement": "Raw Integrated Intensity, Farnesylation", "setting": "[1]; - RSV, one value per lane", "result": "1842503 and 1809411"}, {"measurement": "effect on virus-induced small GTPase prenylation", "setting": "[1]; atorvastatin 3.5 µM, 48 h p.i.", "result": "largely mitigate these virus-induced increases to small GTPase prenylation"}, {"measurement": "cellular viability by MTT assay at EC50", "setting": "HEp-2 cells", "result": "no significant difference from baseline"}, {"measurement": "doses with significant reduction in viability", "setting": "HEp-2 cells; human", "result": "greater than 10.0 µM"}]}]}
